The source of these data is patent US20080275018A1, “ANTIBACTERIAL AMIDE-MACROCYCLES V” (AiCuris GmbH & Co. KG, priority 2005, published 2008).

The subject of one assay is S. aureus T17. Nature of the assay: Minimum inhibitory concentration (MIC), biphenomycin-resistant S. aureus T17. The note with it: Staphylococcus aureus; biphenomycin-resistant S. aureus T17. It is filed as cell-based, Staphylococcus aureus. Here is the method: (§1) The minimum inhibitory concentration (MIC) is the minimum concentration of an antibiotic with which the growth of a test microbe is inhibited over 18-24 h. The inhibitor concentration can in these cases be determined by standard microbiological methods (see, for example, The National Committee for Clinical Laboratory Standards. Methods for dilution antimicrobial susceptibility tests for bacteria that grow aerobically; approved standard-fifth edition. NCCLS document M7-A5 [ISBN 1-56238-394-9]. NCCLS, 940 West Valley Road, Suite 1400, Wayne, Pa. 19087-1898 USA, 2000). The test substances are thereby initially provided in 1:2 dilution series into 96-well round-bottom microtiter plates (Greiner) double-concentrated in 50 μl of test medium. The aerobically growing test microbes (e.g. staphylococci and enterococci), which are incubated overnight on Columbia blood agar plates (Becton-Dickinson), are, after resuspension in 0.9% NaCl, adjusted to a microbe count of about 5×10^7 microbes/ml and then diluted 1:150 in cation-adjusted MH medium (test medium). 50 μL of this suspension are pipetted onto the test preparations provided in the microtiter plates. The cultures are incubated at 37° C. for 18-24 hours. For microaerophilically growing microbes (e.g. streptococci), 2% lysed horse blood in the final concentration is added to the medium and the cultures are incubated in the presence of 5% CO2. The lowest substance concentration in each case at which no visible bacterial growth occurs any longer is defined as the MIC and is reported in μg/ml.
(§2) The minimum inhibitory concentration (MIC) is the minimum concentration of an antibiotic with which the growth of a test microbe is inhibited over 18-24 h. The inhibitor concentration can in these cases be determined by standard microbiological methods (see, for example, The National Committee for Clinical Laboratory Standards. Methods for dilution antimicrobial susceptibility tests for bacteria that grow aerobically; approved standard-fifth edition. NCCLS document M7-A5 [ISBN 1-56238-394-9]. NCCLS, 940 West Valley Road, Suite 1400, Wayne, Pa. 19087-1898 USA, 2000). The MIC of the compounds of the invention is determined in the liquid dilution test on the 96-well microtiter plate scale. The bacterial microbes are cultivated in a minimal medium (18.5 mM Na2HPO4, 5.7 mM KH2PO4, 9.3 mM NH4Cl, 2.8 mM MgSO4, 17.1 mM NaCl, 0.033 μg/ml thiamine hydrochloride, 1.2 μg/ml nicotinic acid, 0.003 μg/ml biotin, 1% glucose, 25 μg/ml of each proteinogenic amino acid with the exception of phenylalanine; [H.-P. Kroll; unpublished]) with the addition of 0.4% BH broth (test medium). In the case of Enterococcus faecium L4001, heat-inactivated fetal calf serum (FCS; GibcoBRL, Germany) is added to the test medium in a final concentration of 10%. Overnight cultures of the test microbes are diluted to an OD578 of 0.001 (to 0.01 in the case of enterococci) in fresh test medium, and incubated 1:1 with dilutions of the test substances (1:2 dilution steps) in test medium ([…]). The cultures are incubated at 37° C. for 18-24 hours; enterococci in the presence of 5% CO2.
(§3) The lowest substance concentration in each case at which no visible bacterial growth occurs any longer is defined as the MIC.
(§4) The minimum inhibitory concentration (MIC) is the minimum concentration of an antibiotic with which the growth of a test microbe is inhibited over 18-24 h. The inhibitor concentration can in these cases be determined by standard microbiological methods with modified medium in an agar dilution test (see, for example, The National Committee for Clinical Laboratory Standards. Methods for dilution antimicrobial susceptibility tests for bacteria that grow aerobically; approved standard-fifth edition. NCCLS document M7-A5 [ISBN 1-56238-394-9]. NCCLS, 940 West Valley Road, Suite 1400, Wayne, Pa. 19087-1898 USA, 2000). The bacterial microbes are cultivated on 1.5% agar plates which contain 20% defibrinated horse blood. […]

The test system of another assay is E. faecium L4001. Description: Minimum inhibitory concentration (MIC), E. faecium L4001. It is filed as cell-based, Enterococcus faecium. The note with it: Enterococcus faecium, L4001, read-out: MIC E. faecium L4001. As for the experimental part:
as §2, §3

In assay [1] the test system is S. aureus 133. Description: Systemic infection with S. aureus 133 (mouse sepsis model). It is filed as in vivo, mouse (female CFW1). The note with it: i.p. infection with S. aureus 133, i.v. therapy 30 minutes after infection, survival recorded for 6 days.
Description: For this purpose, S. aureus 133 cells are cultured overnight in BH broth (Oxoid, Germany). The overnight culture was diluted 1:100 in fresh BH broth and expanded for 3 hours. The bacteria which are in the logarithmic phase of growth are centrifuged and washed twice with a buffered physiological saline solution. A cell suspension in saline solution with an extinction of 50 units is then adjusted in a photometer (Dr Lange LP 2W). After a dilution step (1:15), this suspension is mixed 1:1 with a 10% mucine suspension. 0.2 ml of this infection solution is administered i.p. per 20 g of mouse. This corresponds to a cell count of about 1-2×10^6 microbes/mouse. The i.v. therapy takes place 30 minutes after the infection. Female CFW1 mice are used for the infection experiment. The survival of the animals is recorded for 6 days. The animal model is adjusted so that untreated animals die within 24 h after the infection.
Assay [2] addresses S. aureus 133 Translation. Nature of the assay: S. aureus in vitro transcription-translation assay (firefly luciferase, S30 extract). It counts as biochemical. The note with it: 50% inhibition of the translation of firefly luciferase. An excerpt: For the construction of a reporter plasmid which can be used in an in vitro transcription-translation assay from S. aureus the plasmid pBESTluc (Promega Corporation, USA) is used. The E. coli tac promoter present in this plasmid in front of the firefly luciferase is replaced by the capA1 promoter with corresponding Shine-Dalgarno sequence from S. aureus. The primers CAPFor 5′-[…]-[…] GCCA-3′ and CAPRev 5′-[…]-3′ are used for this. The primer CAPFor contains the capA1 promoter, the ribosome binding site and the 5′ region of the luciferase gene. After PCR using pBESTluc as template it is possible to isolate a PCR product which contains the firefly luciferase gene with the fused capA1 promoter. This is, after restriction with ClaI and HindIII, ligated into the vector pBESTluc which has likewise been digested with ClaI and HindIII. The resulting plasmid pla can be replicated in E. coli and be used as template in the S. aureus in vitro transcription-translation test.
Six litres of BHI medium are inoculated with a 250 ml overnight culture of an S. aureus Strain and allowed to grow at 37° C. until the OD600 nm is 2-4. The cells are harvested by centrifugation and washed in 500 ml of cold buffer A (10 mM Tris acetate, pH 8.0, 14 mM magnesium acetate, 1 mM DTT, 1 M KCl). After renewed centrifugation, the cells are washed in 250 ml of cold buffer A with 50 mM KCl, and the resulting pellets are frozen at −20° C. for 60 min. The pellets are thawed on ice in 30 to 60 min and taken up to a total volume of 99 ml in buffer B (10 mM Tris acetate, pH 8.0, 20 mM magnesium acetate, 1 mM DTT, 50 mM KCl). 1.5 ml portions of lysostaphin (0.8 mg/ml) in buffer B are provided in 3 precooled centrifuge cups and each mixed with 33 ml of the cell suspension. The samples are incubated at 37° C., shaking occasionally, for 45 to 60 min, before 150 μl of a 0.5 M DTT solution are added. The lysed cells are centrifuged at 30 000×g and 4° C. for 30 min. The cell pellet is taken up in buffer B and then centrifuged again under the same conditions, and the collected supernatants are combined. The supernatants are centrifuged again under the same conditions, and 0.25 volumes of buffer C (670 mM Tris acetate, pH 8.0, 20 mM magnesium acetate, 7 mM Na3 phosphoenolpyruvate, 7 mM DTT, 5.5 mM ATP, 70 μM amino acids (complete from Promega), 75 μg of pyruvate kinase (Sigma, Germany)/ml are added to the upper ⅔ of the supernatant. The samples are incubated at 37° C. for 30 min. The supernatants are dialysed against 2 l of dialysis buffer (10 mM Tris acetate, pH 8.0, 14 mM magnesium acetate, 1 mM DTT, 60 mM potassium acetate) in a dialysis tube with a 3500 Da cut-off with one buffer change at 4° C. overnight. The dialysate is concentrated to a protein concentration of about 10 mg/ml by
covering the dialysis tube with cold PEG 8000 powder (Sigma, Germany) at 4° C. The S30 extracts can be stored in aliquots at −70° C.
The inhibition of protein biosynthesis of the compounds can be shown in an in vitro transcription-translation assay. The assay is based on the cell-free transcription and translation of firefly luciferase using the reporter plasmid pla as template and cell-free S30 extracts obtained from S. aureus. The activity of the resulting luciferase can be detected by luminescence measurement.
The amount of S30 extract or plasmid pla to be employed must be tested anew for each preparation in order to ensure an optimal concentration in the test. […] of the substance to be tested, dissolved in 5% DMSO, are introduced into an MTP. Then […] of a suitably concentrated plasmid solution pla are added. […]

For assay [3], the system named is S. aureus 133. Description: Minimum inhibitory concentration (MIC), S. aureus 133. It counts as cell-based, Staphylococcus aureus. The settings on record: Staphylococcus aureus, 133, read-out: MIC S. aureus 133. As for the experimental part:
as §1, §2, §3, §4

Counter-ions that a name gives are not always drawn.

In general, MIC refers to the lowest concentration found to suppress growth. What is called IC50 is the midpoint of a concentration-inhibition curve. Regarding `NCCC[C@H](N)CNC(=O)CNC(=O)[C@@H]1Cc2cccc(c2)-c2ccc(O)c(c2)C[C@H](N)C(=O)N[C@@H](C[C@@H](O)CN)C(=O)N1` [Example 2, (8S,11S,14S)-14-Amino-11-[(2R)-3-amino-2-hydroxypropyl]-N-(2-{[(2S)-2,5-diaminopentyl]-amino}-2-oxoethyl)-17-hydroxy-10,13-dioxo-9,12-diazatricyclo[14.3.1.1^2,6]henicosa-1(20),2(21),3,5,16,18-hexaene-8-carboxamide tetrahydrochloride], the figures for the MIC against S. aureus T17, in the assay on E. faecium L4001 and with S. aureus 133 [3] were 1 mg/L, 2 mg/L and 1 mg/L, respectively. Moreover, in the assay with S. aureus 133 [1], the “therapeutic effect ED100” value is recorded as 1.25 mg/kg. The same compound displayed an IC50 in assay [2] of 0.07 µM.
